Laboratory results as given in ChEMBL document CHEMBL1926576, “Fragment based lead discovery of small molecule inhibitors for the EPHA4 receptor tyrosine kinase” (Eur J Med Chem, 2012).

What was measured:
[1] = target: Ephrin type-A receptor 2 (Homo sapiens) (UniProt P29317); experiment: Inhibition of EPHA2 assessed as residual activity at 10 uM using [33P-ATP] by radiometric filter binding assay
[2] = target: Mitogen-activated protein kinase 3 (Homo sapiens) (UniProt P27361); experiment: Inhibition of ERK1 assessed as residual activity at 10 uM using [33P-ATP] by radiometric filter binding assay
Chain of Mitogen-activated protein kinase 3 (Homo sapiens) (P27361 whole entry): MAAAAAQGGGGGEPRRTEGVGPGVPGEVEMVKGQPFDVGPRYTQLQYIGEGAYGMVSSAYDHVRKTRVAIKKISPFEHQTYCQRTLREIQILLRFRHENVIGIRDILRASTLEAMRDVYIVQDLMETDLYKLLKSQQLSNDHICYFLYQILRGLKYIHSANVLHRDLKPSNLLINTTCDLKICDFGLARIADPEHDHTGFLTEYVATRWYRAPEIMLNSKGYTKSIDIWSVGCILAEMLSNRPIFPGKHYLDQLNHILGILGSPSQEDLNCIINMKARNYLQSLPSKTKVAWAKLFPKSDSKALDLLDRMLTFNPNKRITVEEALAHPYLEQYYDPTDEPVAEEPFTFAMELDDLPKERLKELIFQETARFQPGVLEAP

[3] = target: Angiopoietin-1 receptor (Homo sapiens) (UniProt Q02763); experiment: Inhibition of TIE2 assessed as residual activity at 10 uM using [33P-ATP] by radiometric filter binding assay
Chain of Angiopoietin-1 receptor (Homo sapiens) (Q02763 whole entry): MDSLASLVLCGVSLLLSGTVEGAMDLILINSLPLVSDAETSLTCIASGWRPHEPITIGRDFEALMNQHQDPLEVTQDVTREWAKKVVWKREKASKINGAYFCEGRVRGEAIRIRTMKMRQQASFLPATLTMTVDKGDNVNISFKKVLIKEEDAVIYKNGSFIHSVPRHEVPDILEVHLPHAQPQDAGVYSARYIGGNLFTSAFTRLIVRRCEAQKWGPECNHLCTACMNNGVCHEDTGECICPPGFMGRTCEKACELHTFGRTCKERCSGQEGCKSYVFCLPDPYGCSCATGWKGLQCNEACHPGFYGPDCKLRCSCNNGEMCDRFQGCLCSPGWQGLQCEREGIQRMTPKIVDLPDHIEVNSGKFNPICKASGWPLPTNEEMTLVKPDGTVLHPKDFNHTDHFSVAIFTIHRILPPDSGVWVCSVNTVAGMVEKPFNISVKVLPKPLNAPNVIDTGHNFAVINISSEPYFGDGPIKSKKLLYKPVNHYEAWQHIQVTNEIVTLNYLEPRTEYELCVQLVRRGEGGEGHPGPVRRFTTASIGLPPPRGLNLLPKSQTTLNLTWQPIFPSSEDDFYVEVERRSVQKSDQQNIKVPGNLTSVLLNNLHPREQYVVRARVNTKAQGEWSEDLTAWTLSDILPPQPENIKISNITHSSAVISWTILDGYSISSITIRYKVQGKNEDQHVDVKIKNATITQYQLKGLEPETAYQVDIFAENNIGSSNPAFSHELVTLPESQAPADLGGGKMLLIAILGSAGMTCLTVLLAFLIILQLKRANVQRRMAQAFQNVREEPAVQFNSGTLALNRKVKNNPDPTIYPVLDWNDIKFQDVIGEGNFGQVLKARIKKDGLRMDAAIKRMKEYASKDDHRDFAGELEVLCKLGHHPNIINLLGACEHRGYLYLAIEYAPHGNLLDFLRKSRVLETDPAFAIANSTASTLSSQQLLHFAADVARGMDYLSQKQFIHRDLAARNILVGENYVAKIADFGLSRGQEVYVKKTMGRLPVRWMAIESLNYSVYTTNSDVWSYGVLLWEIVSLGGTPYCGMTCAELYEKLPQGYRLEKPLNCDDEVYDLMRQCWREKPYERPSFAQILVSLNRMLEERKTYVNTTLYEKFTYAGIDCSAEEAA

[4] = target: Protein kinase C zeta type (Homo sapiens) (UniProt Q05513); experiment: Inhibition of PKCzeta assessed as residual activity at 10 uM using [33P-ATP] by radiometric filter binding assay
[5] = target: Tyrosine-protein kinase SYK (Homo sapiens) (UniProt P43405); experiment: Inhibition of SYK assessed as residual activity at 10 uM using [33P-ATP] by radiometric filter binding assay
[6] = target: Aurora kinase A (Homo sapiens) (UniProt O14965); experiment: Inhibition of aurora-A assessed as residual activity at 10 uM using [33P-ATP] by radiometric filter binding assay
[7] = Inhibition of PHK assessed as residual activity at 10 uM using [33P-ATP] by radiometric filter binding assay
[8] = target: Interleukin-1 receptor-associated kinase 4 (Homo sapiens) (UniProt Q9NWZ3); experiment: Inhibition of IRAK4 assessed as residual activity at 10 uM using [33P-ATP] by radiometric filter binding assay
Chain of Interleukin-1 receptor-associated kinase 4 (Homo sapiens) (Q9NWZ3 whole entry): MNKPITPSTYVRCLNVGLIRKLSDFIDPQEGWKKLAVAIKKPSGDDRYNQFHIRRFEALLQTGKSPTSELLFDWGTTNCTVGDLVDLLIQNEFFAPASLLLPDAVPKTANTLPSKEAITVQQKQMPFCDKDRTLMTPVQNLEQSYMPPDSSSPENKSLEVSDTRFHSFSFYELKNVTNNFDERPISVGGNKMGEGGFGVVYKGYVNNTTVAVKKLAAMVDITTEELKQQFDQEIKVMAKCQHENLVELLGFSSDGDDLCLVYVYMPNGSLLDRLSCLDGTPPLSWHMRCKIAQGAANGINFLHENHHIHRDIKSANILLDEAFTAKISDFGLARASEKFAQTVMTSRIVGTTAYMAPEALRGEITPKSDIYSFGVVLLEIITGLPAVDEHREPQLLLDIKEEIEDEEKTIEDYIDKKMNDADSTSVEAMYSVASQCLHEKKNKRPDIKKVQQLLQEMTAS

[9] = target: Ribosomal protein S6 kinase alpha-1 (Homo sapiens) (UniProt Q15418); experiment: Inhibition of RSK1 assessed as residual activity at 10 uM using [33P-ATP] by radiometric filter binding assay
[10] = target: Mitogen-activated protein kinase kinase kinase 5 (Homo sapiens) (UniProt Q99683); experiment: Inhibition of ASK1 assessed as residual activity at 10 uM using [33P-ATP] by radiometric filter binding assay
[11] = target: Death-associated protein kinase 1 (Homo sapiens) (UniProt P53355); experiment: Inhibition of DAPK1 assessed as residual activity at 10 uM using [33P-ATP] by radiometric filter binding assay
[12] = target: Ephrin type-B receptor 1 (Homo sapiens) (UniProt P54762); experiment: Inhibition of EPHB1 assessed as residual activity at 10 uM using [33P-ATP] by radiometric filter binding assay
[13] = target: Tyrosine-protein kinase CSK (Homo sapiens) (UniProt P41240); experiment: Inhibition of CSK assessed as residual activity at 10 uM using [33P-ATP] by radiometric filter binding assay
Chain of Tyrosine-protein kinase CSK (Homo sapiens) (P41240 2-450 limits assumed): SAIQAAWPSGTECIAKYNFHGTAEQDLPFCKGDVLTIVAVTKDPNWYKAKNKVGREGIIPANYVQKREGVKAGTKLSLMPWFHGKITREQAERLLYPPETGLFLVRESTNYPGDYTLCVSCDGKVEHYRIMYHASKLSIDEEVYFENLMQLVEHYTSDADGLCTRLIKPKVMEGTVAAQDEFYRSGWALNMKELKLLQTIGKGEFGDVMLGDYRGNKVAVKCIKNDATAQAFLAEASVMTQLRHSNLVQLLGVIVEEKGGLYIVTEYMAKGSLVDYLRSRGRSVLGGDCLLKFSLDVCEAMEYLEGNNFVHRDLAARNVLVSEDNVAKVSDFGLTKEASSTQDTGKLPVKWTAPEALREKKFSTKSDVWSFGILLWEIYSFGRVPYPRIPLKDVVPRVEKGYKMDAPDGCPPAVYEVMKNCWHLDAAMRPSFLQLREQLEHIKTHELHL

[14] = target: Tyrosine-protein kinase ABL1 (Homo sapiens) (UniProt P00519); experiment: Inhibition of ABL assessed as residual activity at 10 uM using [33P-ATP] by radiometric filter binding assay
[15] = target: MAP kinase-activated protein kinase 5 (Homo sapiens) (UniProt Q8IW41); experiment: Inhibition of PRAK assessed as residual activity at 10 uM using [33P-ATP] by radiometric filter binding assay
Chain of MAP kinase-activated protein kinase 5 (Homo sapiens) (Q8IW41 whole entry): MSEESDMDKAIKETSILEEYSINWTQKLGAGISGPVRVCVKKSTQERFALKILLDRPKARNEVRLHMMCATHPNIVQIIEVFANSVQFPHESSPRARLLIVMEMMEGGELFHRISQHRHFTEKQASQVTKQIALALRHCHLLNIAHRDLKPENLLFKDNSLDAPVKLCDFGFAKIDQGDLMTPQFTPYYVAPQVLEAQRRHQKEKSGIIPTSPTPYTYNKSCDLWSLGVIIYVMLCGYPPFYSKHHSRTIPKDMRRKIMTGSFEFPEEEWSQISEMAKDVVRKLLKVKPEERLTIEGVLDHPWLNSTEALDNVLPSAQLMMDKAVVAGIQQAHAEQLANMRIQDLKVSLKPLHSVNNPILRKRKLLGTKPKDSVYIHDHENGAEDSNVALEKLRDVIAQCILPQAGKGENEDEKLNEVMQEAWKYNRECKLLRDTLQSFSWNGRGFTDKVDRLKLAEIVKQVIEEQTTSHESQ

[16] = target: Ribosomal protein S6 kinase beta-1 (Homo sapiens) (UniProt P23443); experiment: Inhibition of S6K1 assessed as residual activity at 10 uM using [33P-ATP] by radiometric filter binding assay
Chain of Ribosomal protein S6 kinase beta-1 (Homo sapiens) (P23443 whole entry, looked up): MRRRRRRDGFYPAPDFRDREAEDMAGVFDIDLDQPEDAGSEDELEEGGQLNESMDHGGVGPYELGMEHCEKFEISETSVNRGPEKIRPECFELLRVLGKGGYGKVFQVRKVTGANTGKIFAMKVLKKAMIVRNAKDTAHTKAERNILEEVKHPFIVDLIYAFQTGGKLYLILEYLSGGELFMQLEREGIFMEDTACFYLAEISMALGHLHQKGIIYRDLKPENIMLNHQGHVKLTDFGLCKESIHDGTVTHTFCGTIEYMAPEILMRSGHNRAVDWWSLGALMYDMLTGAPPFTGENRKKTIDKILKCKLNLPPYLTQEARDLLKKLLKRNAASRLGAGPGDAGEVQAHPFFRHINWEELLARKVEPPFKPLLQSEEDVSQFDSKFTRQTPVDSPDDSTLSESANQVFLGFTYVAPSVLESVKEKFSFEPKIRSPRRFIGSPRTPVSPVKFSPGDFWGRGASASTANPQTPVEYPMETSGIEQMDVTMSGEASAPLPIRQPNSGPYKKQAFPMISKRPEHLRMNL

[17] = target: Protein kinase C gamma type (Homo sapiens) (UniProt P05129); experiment: Inhibition of PKCgamma assessed as residual activity at 10 uM using [33P-ATP] by radiometric filter binding assay
[18] = target: Serine/threonine-protein kinase Nek2 (Homo sapiens) (UniProt P51955); experiment: Inhibition of NEK2alpha assessed as residual activity at 10 uM using [33P-ATP] by radiometric filter binding assay
[19] = target: RAC-alpha serine/threonine-protein kinase (Homo sapiens) (UniProt P31749); experiment: Inhibition of PKBalpha assessed as residual activity at 10 uM using [33P-ATP] by radiometric filter binding assay
Chain of RAC-alpha serine/threonine-protein kinase (Homo sapiens) (P31749 whole entry): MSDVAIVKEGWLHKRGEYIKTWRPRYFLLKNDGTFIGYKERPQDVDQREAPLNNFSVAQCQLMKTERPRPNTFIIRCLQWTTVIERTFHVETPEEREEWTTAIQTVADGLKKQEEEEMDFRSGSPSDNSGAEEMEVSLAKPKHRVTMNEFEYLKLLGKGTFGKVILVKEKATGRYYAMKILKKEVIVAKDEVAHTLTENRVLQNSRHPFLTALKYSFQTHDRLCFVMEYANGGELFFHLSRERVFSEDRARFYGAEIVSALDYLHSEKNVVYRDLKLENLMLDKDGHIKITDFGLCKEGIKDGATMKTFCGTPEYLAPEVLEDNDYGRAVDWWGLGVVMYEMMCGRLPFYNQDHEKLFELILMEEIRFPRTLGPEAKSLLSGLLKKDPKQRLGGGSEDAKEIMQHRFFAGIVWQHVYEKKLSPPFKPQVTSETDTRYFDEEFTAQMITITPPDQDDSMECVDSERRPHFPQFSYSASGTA

[20] = Inhibition of AMPK assessed as residual activity at 10 uM using [33P-ATP] by radiometric filter binding assay
[21] = target: Serine/threonine-protein kinase STK11 (Homo sapiens) (UniProt Q15831); experiment: Inhibition of LKB1 assessed as residual activity at 10 uM using [33P-ATP] by radiometric filter binding assay
[22] = target: Serine/threonine-protein kinase 16 (Homo sapiens) (UniProt O75716); experiment: Inhibition of MPSK1 assessed as residual activity at 10 uM using [33P-ATP] by radiometric filter binding assay
Chain of Serine/threonine-protein kinase 16 (Homo sapiens) (O75716 whole entry, looked up): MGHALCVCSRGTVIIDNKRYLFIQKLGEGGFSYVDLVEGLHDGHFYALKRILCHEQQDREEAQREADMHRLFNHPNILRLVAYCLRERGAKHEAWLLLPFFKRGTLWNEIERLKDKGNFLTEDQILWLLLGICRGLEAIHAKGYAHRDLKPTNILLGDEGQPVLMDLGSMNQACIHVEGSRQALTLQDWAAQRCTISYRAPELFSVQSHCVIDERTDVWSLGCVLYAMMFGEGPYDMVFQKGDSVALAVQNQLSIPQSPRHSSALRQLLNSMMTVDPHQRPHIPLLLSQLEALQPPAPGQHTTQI

[23] = target: Tyrosine-protein kinase ZAP-70 (Homo sapiens) (UniProt P43403); experiment: Inhibition of ZAP70 assessed as residual activity at 10 uM using [33P-ATP] by radiometric filter binding assay
[24] = target: Proto-oncogene tyrosine-protein kinase Src (Homo sapiens) (UniProt P12931); experiment: Inhibition of Src assessed as residual activity at 10 uM using [33P-ATP] by radiometric filter binding assay
[25] = target: Aurora kinase B (Homo sapiens) (UniProt Q96GD4); experiment: Inhibition of aurora-B assessed as residual activity at 10 uM using [33P-ATP] by radiometric filter binding assay
[26] = target: Fibroblast growth factor receptor 1 (Homo sapiens) (UniProt P11362); experiment: Inhibition of FGF-R1 assessed as residual activity at 10 uM using [33P-ATP] by radiometric filter binding assay
Chain of Fibroblast growth factor receptor 1 (Homo sapiens) (P11362 22-822 limits assumed): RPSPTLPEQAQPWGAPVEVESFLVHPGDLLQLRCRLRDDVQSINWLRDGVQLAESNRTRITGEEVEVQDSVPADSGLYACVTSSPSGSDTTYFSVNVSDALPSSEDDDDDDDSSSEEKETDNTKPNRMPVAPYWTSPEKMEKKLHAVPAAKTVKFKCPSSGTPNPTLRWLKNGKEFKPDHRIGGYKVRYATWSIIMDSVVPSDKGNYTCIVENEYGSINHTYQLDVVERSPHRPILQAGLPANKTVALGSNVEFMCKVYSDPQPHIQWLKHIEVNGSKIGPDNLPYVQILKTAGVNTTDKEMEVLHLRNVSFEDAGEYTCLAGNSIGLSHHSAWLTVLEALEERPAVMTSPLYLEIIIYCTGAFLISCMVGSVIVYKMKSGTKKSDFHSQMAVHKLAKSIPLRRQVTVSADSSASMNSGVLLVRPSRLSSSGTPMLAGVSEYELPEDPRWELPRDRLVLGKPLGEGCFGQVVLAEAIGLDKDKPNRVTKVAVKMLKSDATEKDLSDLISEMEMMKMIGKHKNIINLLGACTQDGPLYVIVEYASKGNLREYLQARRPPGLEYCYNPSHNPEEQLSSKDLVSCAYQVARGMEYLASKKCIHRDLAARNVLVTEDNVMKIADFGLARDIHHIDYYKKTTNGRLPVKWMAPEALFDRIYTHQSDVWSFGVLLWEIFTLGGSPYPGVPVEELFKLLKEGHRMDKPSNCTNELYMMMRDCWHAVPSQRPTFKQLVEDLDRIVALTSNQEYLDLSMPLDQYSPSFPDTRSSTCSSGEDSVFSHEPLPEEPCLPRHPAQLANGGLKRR

- Activity [1]: 29%
- Activity [2]: 97%
- Activity [3]: 65%
- Activity [4]: 106%
- Activity [5]: 76%
- Activity [6]: 68%
- Activity [7]: 86%
- Activity [8]: 55%
- Activity [9]: 93%
- Activity [10]: 99%
- Activity [12]: 4%
- Activity [13]: 35%
- Activity [14]: 45%
- Activity [15]: 97%
- Activity [16]: 103%
- Activity [17]: 108%
- Activity [18]: 91%
- Activity [19]: 79%
- Activity [20]: 86%
- Activity [21]: 52%
- Activity [22]: 71%
- Activity [23]: 107%
- Activity [24]: 25%
- Activity [25]: 49%
- Activity [26]: 55%
Compound: Cc1ccc(F)cc1-c1nc2[nH]nc(N)c2c2c1CCCC2
- Activity [11]: 101%
